Read-outs that look alike come from different tables or passages of the source.
Legend:
[1] = test system: Naegleria fowleri trophozoites (Carter NF69 strain, ATCC 30215); assay: In vitro anti-N. fowleri activity, trophozoite viability; type: cell-based; conditions: for IC50: Naegleria fowleri, ATCC30215, 48 h, read-out: N. fowleri (IC50 ±SD, μM), trophozoites, 0–400 μM, 37°C, 48 h, mean±SD of 3 independent experiments; for SI, sensitivity index (CC50 C6 glial cells / IC50 N. fowleri): ratio CC50 C6 glial cells / IC50 N. fowleri; for antiamoebic activity against N. fowleri (in words): trophozoites, in vitro
[2] = test system: A. castellanii (ATCC-30868) trophozoites; assay: In vitro anti-Acanthamoeba activity, A. castellanii trophozoite viability; type: cell-based; conditions: for IC50: mean±SD of 3 independent experiments; for SI, sensitivity index (CC50 C6 glial cells / IC50 A. castellanii): ratio CC50 C6 glial cells / IC50 A. castellanii; for antiamoebic activity against A. castellanii (in words): in vitro
[3] = test system: A. polyphaga (ATCC-30461) trophozoites; assay: In vitro anti-Acanthamoeba activity, A. polyphaga trophozoite viability; type: cell-based; conditions: for IC50: mean±SD of 3 independent experiments; for SI, sensitivity index (CC50 C6 glial cells / IC50 A. polyphaga): ratio CC50 C6 glial cells / IC50 A. polyphaga; for antiamoebic activity against A. polyphaga (in words): in vitro
[4] = Cytotoxicity against C6 glial cells; type: cell-based, rat; conditions: rat, C6 glial cells
[5] = Acanthamoeba castellanii, ATCC30868, 48 h, read-out: A. castellanii (IC50 ±SD, μM), trophozoites, 0–400 μM, 25°C, 48 h
[6] = read-out: A. castellanii (IC50 ±SD), trophozoites, 0–400 μM, 25°C, 48 h
[7] = Acanthamoeba polyphaga, ATCC30461, 48 h, read-out: A. polyphaga (IC50 ±SD, μM), trophozoites, 0–400 μM, 25°C, 48 h
[8] = read-out: A. polyphaga (IC50 ±SD), trophozoites, 0–400 μM, 25°C, 48 h
[9] = trophozoites, listed as berberine

| SMILES | IC50 [1] [µM] | SI, sensitivity index (CC50 C6 glial cells / IC50 N. fowleri) [1] | antiamoebic activity against N. fowleri (in words) [1] | IC50 [2, 5] [µM] | SI, sensitivity index (CC50 C6 glial cells / IC50 A. castellanii) [2] | SI, sensitivity index (CC50 C6 glial cells / IC50 A. castellanii) ([2]; listed as (−)-epicatechin) | IC50 [2, 6] [µM] | IC50 [3, 7] [µM] | SI, sensitivity index (CC50 C6 glial cells / IC50 A. polyphaga) [3] | SI, sensitivity index (CC50 C6 glial cells / IC50 A. polyphaga) ([3]; listed as (−)-epicatechin) | IC50 [3, 8] [µM] | CC50 [4] [µM] | antiamoebic activity against A. castellanii (in words) ([2]; trophozoites) | antiamoebic activity against A. polyphaga (in words) ([3]; trophozoites) | antiamoebic activity against A. castellanii (in words) [2, 9] | antiamoebic activity against A. polyphaga (in words) [3, 9] |
| --- | --- | --- | --- | --- | --- | --- | --- | --- | --- | --- | --- | --- | --- | --- | --- | --- |
| Oc1cc(O)c2c(c1)O[C@H](c1ccc(O)c(O)c1)[C@H](O)C2 [(−)-Epicatechin, (−)-epicatechin] | 102.6 ± 0.97 | 3.11 | did not show significative anti-N. fowleri activities | < 50 | 9.55 | > 8 | 33.4 ± 0.68 | < 50 | 12.73 | > 8 | 25.02 ± 0.14 | 318.6 ± 0.82 |  |  |  |  |
| C=C1CC/C=C(\C)CC[C@@H]2[C@@H]1CC2(C)C [(−)-trans-Caryophyllene, (−)-trans-caryophyllene] | 84.78 ± 0.65 | 2.60 |  | 65.1 ± 1.42 | 3.39 |  |  | 44.8 ± 1.41 | 4.92 |  |  | 220 ± 2.42 |  |  |  |  |
| C[C@@H]1O[C@@H](Oc2c(-c3ccc(O)cc3)oc3cc(O)cc(O)c3c2=O)[C@H](O)[C@H](O)[C@H]1O [Afzelin, afzelin] | > 230 |  |  | > 230 |  |  |  | > 230 |  |  |  | > 230 | did not exhibit potential or selective antiamoebic activity | did not exhibit potential or selective antiamoebic activity |  |  |
| CC[C@H]1OC(=O)[C@H](C)[C@@H](O[C@H]2C[C@@](C)(OC)[C@@H](O)[C@H](C)O2)[C@H](C)[C@@H](O[C@@H]2O[C@H](C)C[C@H](N(C)C)[C@H]2O)[C@](C)(O)C[C@@H](C)CN(C)[C@H](C)[C@@H](O)[C@]1(C)O [Azithromycin, Azithromycin dihydrate, reference compound] | 14.7 ± 1.65 | 5.88 |  | 12.1 ± 0.2 | 7.12 |  |  | 4.12 ± 0.11 | 20.93 |  |  | 86.2 ± 0.93 |  |  |  |  |
| COc1ccc2cc3[n+](cc2c1OC)CCc1cc2c(cc1-3)OCO2 [Berberine, berberine] | > 260 |  | did not affect | > 260 |  |  |  | > 260 |  |  |  | 159.7 ± 1.23 | did not affect | did not affect | did not exhibit potential or selective antiamoebic activity | did not exhibit potential or selective antiamoebic activity |
| C=C1C(=O)O[C@@H]2/C=C(\C)CC/C=C(\C)CC[C@@H]12 [Costunolide, costunolide] | 65.56 ± 0.58 | 2.92 |  | < 50 | 5.97 |  | 32 ± 1.14 | < 50 | 5.44 |  | 35.1 ± 0.74 | 191.2 ± 1.18 |  |  |  |  |
| O=c1c(-c2ccc(O)cc2)coc2cc(O)cc(O)c12 [Genistein, genistein] | 157.4 ± 0.57 | 0.66 |  | > 370 |  |  |  | > 370 |  |  |  | 104 ± 1.08 | did not exhibit potential or selective antiamoebic activity | did not exhibit potential or selective antiamoebic activity |  |  |

— article PMC10693969 (Parasites, Hosts and Diseases, 2023)
